Measured values taken from patent US7312323B2, “Enzymes and polynucleotides encoding the same” (The Horticulture and Food Research Institute of New Zealand …, priority 2002, dated 2007).

Columns and labels:
[1] = Thermal rearrangement, pentane extracts from purified protein injected at different port temperatures; assay type: physicochemical
Protocol: Dynamic headspace methods were also used to collect the headspace volatiles from the purified extracts on to 100 mg Chromosorb 105 adsorbent traps. The protein was placed into 50 mL Quickfit® test tubes, which were fitted with a headspace adaptor with an air inlet and outlet. Volatiles were collected onto the Chromosorb 105 adsorbent traps, which were fitted to the air outlet port of each adaptor. The volatiles were purged from the vessel onto the traps with clean air at 50 mL min^−1 for 18 hours. The traps were stored at −15° C. for up to one week, and then subjected to GC-FIDIMS analysis. Finally, pentane extracts were taken from the purified extracts. An aliquot (2.5 ml) of pentane was added to the purified extracts and was left to extract for 18 hours. The pentane was removed and then concentrated with a stream of N2 gas. This was then injected onto the GC-MS at 150° C.
More light can be shed on the possibility of rearrangement of the products using pentane extraction.
In an experiment to test for thermal rearrangement, injections of pentane extract from purified protein were made at temperatures of 125, 150 and 210° C.; or pentane extract from Actinidia flowers were made at temperatures of 100, 125, 150 and 210° C. […] Germacrene B modulated slightly in response to temperature shifts although no gamma-elemene was found as might be predicted. In addition the predicted precursor for delta elemene—germacrene C (Feger et al., Flavour and Fragrance Journal 15: 170-173 (2000)) was not detected at any time. Germacrene A was also not detected at any time. […] Elemol may arise from further rearrangements of delta-elemene or from other elemene sources or from hedycaryol (Chamblee et al., J. Essent. Oil Res. 9: 127-132 (1997)). No GC-MS traces in any experiments indicated evidence for germacrene-C or for hedycaryol.

[2] = Bülow and König 2000; cited from earlier work
[3] = Thermal rearrangement, pentane extracts from Actinidia flowers injected at different port temperatures; assay type: physicochemical
Protocol: Whole flowers of the same plants were also harvested at anthesis in 2000. 18.6 g and 21 g of flowers from a mixture of developmental stages were placed in 2× Quickfit® Erlenmeyer flasks as above. Volatiles were collected onto a Chromosorb adsorbent trap in duplicate, after the system had been equilibrated for 30 min at room temperature (ca. 23° C.), by purging onto the trap with clean air at 25 mL min^−1 for 60 minutes. The trap was stored at −15° C. for one week and then analysed by GC-FD/MS. The same petals (1.99 g) were then extracted with pentane-ether (2 ml) and stored at −20° C. until analysed. The pentane (GPR, BDH) had been purified by distillation and by passing through a column of activated alumina. Pentane extracts were reduced by rotary evaporation and were dried by passing through a small column of anhydrous MgSO4 before the volume was reduced to ca. 50 μL under a gentle stream of nitrogen. The extract was analysed by GC-FID/MS.
GC-MS Analysis of dynamic headspace samples and pentane extracts: Volatile compounds were thermally desorbed from the headspace traps at 150° C. and were cryo-focussed at the beginning of the GC column (Young, 1981). The column outlet was split between the GC (Hewlett Packard 5890) FID detector (for quantitation) and VG-70SE (VG-Micromass, Manchester, U.K.) mass spectrometer (for component identification) with an electron impact ionisation of 70 eV. Separations were carried out in a 30 m×0.32 mm i.d., 0.5 μn DBWax capillary column (J & W Scientific, Folsom, USA), starting at 30° C. for 6 min, increasing by 3° C. min^−1 to 102° C., 5° C. min^−1 to 210° C. and held for 5 min. Injector temperature was 210° C. The carrier gas was He at a flow rate of ˜30 cm s^−1, and the FID and mass spectrometer transfer line were at 210° C. Quantification of compounds was carried out using an average detector response based on methyl butanoate, ethyl butanoate, hexanol and methyl benzoate. Components were identified by comparison with spectra in the mass spectral database (NIST 1998, Wiley 7 and an in-house database), retention indices (in-house database) and in some cases direct GC-MS comparison with authentic standards. Separations for the earlier 2000 samples were carried out in the same manner as above except the programme started at 30° C. for 6 min, increasing by 3° C. min^−1 to 102° C., 5° C. min^−1 to 190° C. and held for 5 min. Analysis of the pentane extract used a programme of 2 min at 40° C., 5° C. min^−1 to 200° C., 15° C. m^−1 to 240° C. and held for 20 min. For genotype 32-10-07a: the GC-MS was programmed to start at 30° C. for 2 min, increasing by 3° C. min^−1 to 50° C., 5° C. min^−1 to 130° C., 10° C. min^−1 to 240° C. and held for 2 min. Injector temperature was 240° C.
In an experiment to test for thermal rearrangement, injections of pentane extract from purified protein were made at temperatures of 125, 150 and 210° C.; or pentane extract from Actinidia flowers were made at temperatures of 100, 125, 150 and 210° C.

[4] = tested on: Periplanata americana L.; details: Nishino et al. 1977; cited from earlier work
[5] = tested on: Heliothis virescens; details: Mozuraitis et al. 2002; cited from earlier work
[6] = injection port temperature 125 °C
[7] = injection port temperature 150 °C
[8] = injection port temperature 210 °C

Q: What does the source list for `C=C1C=CC(C(C)C)CCC(C)=CCC1` (stereo not shown) [Germacrene D, 7-iso-propyl-10-methyl-4-methylene-cyclodeca-5,10-diene]?
A: Peak Area [1, 6]: 4.22 × 10^6; Peak Area [1, 7]: 4.90 × 10^6; Peak Area [1, 8]: 3.91 × 10^6; temperature up to which stable [2]: up to 180 °C; Peak Area ([3]; injection port temperature 100 °C): 2.85 × 10^7 ^; Peak Area [3, 6]: 3.78 × 10^7; Peak Area [3, 7]: 3.87 × 10^7; Peak Area [3, 8]: 2.42 × 10^7; effect on male cockroach [4]: sex stimulant; effect on moth behaviour [5]: increase attraction of and oviposition
